This is an account of results in US8658697B2 (priority 2004, dated 2014).

pEC50: −log10 of the molar value.

The test relates to Tacaribe virus (TRVL 11573). Kind of test: microbe, parasite or virus in culture. It is filed as cell-based. The conditions noted are these: Mammarenavirus tacaribeense, Vero, read-out: Tacaribe EC50.
Take `CN1CCOc2cc(S(=O)(=O)NNC(=O)NC(C)(C(F)(F)F)C(F)(F)F)ccc21` [Example 3, N-2-(1,1,1,3,3,3-Hexafluoro-2-methylpropyl)-2-[7-(4-methyl-3,4-dihydro-2H-benzo[1,4]oxazinyl)sulfonyl] hydrazine-1-carboxamide]: the pEC50 – broadly, −log10 of the EC50, conventionally taken in molar units – was over 6.30.

For `CC(NC(=O)N1CCCCCC1)(C(F)(F)F)C(F)(F)F` [Example 94, Azepane-1-carboxylic acid (2,2,2-trifluoro-1-methyl-1-trifluoromethylethyl)-amide], the pEC50 is under 5.30.

With `CC(NC(=O)NNS(=O)(=O)c1cccc(Br)c1)(C(F)(F)F)C(F)(F)F` [Example 9, N-2-(1,1,1,3,3,3-Hexafluoro-2-methylpropyl)-2-[(3-bromophenyl)sulfonyl)hydrazine-1-carboxamide], the pEC50 was over 6.30.

For `CC(NC(=O)Nc1ccccc1OC(F)(F)F)(C(F)(F)F)C(F)(F)F` [Example 96, 1-(2-Trifluoromethoxyphenyl)-3-(2,2,2-trifluoro-1-methyl-1-trifluoromethylethyl)-urea], the pEC50 is under 5.30.

On to `Cc1ccc(S(=O)(=O)N(C)NC(=O)NC(C)(C(F)(F)F)C(F)(F)F)cc1` [Example 43, N-2-(1,1,1,3,3,3-Hexafluoro-2-methylpropyl)-2-[(4-methylphenyl)sulfonyl]-2-methylhydrazine-1-carboxamide], for which the pEC50 is 5.30 to 6.00.

For `CC(NC(=O)NNS(=O)(=O)c1ccc(N2CCOCC2)nc1)(C(F)(F)F)C(F)(F)F` [Example 27, N-2-(1,1,1,3,3,3-Hexafluoro-2-methylpropyl)-2-(2-(5-morpholin-4-yl)pyridylsulfonyl]hydrazine-1-carboxamide], the pEC50 was 5.30 to 6.00.

On to `CC(NC(=O)NNS(=O)(=O)c1c(F)cccc1F)(C(F)(F)F)C(F)(F)F` [Example 40, N-2-(1,1,1,3,3,3-Hexafluoro-2-methylpropyl)-2-[(2,6-difluorophenyl)sulfonyl]hydrazine-1-carboxamide], for which the pEC50 was 5.30 to 6.00.

`Cc1nc(C)c(S(=O)(=O)NNC(=O)NC(C)(C(F)(F)F)C(F)(F)F)s1` [Example 38, N-2-(1,1,1,3,3,3-Hexafluoro-2-methylpropyl)-2-[(2,4-dimethylthiazol-5-yl)sulfonyl]hydrazine-1-carboxamide]: the pEC50 was 5.30 to 6.00.

With `CC(NC(=O)Nc1ccccc1)(C(F)(F)F)C(F)(F)F` [Example 75, 1-Phenyl-3-(2,2,2-trifluoro-1-methyl-1-trifluoromethylethyl)-urea], the pEC50 is 5.30 to 6.00.

With `CC(NC(=O)NNS(=O)(=O)c1ccc([N+](=O)[O-])cc1)(C(F)(F)F)C(F)(F)F` [Example 48, N-2-(1,1,1,3,3,3-Hexafluoro-2-methylpropyl)-2-[(4-nitrophenyl)sulfonyl]hydrazine-1-carboxamide], the pEC50 is under 5.30.

For `CC(NC(=O)Nc1ccccc1S(N)(=O)=O)(C(F)(F)F)C(F)(F)F` [Example 66, 2-[3-(1,1-Bis-trifluoromethylethyl)-ureido]benzenesulfonamide], the pEC50 is 5.30 to 6.00.

Consider `COc1cccc(S(=O)(=O)NNC(=O)NC(C)(C(F)(F)F)C(F)(F)F)c1` [Example 17, N-2-(1,1,1,3,3,3-Hexafluoro-2-methylpropyl)-2-[(3-methoxyphenyl)sulfonyl]hydrazine-1-carboxamide], for which the pEC50 was 6.00 to 6.30.

`CC(NC(=O)Nc1cccc2c1OC(F)(F)O2)(C(F)(F)F)C(F)(F)F` [Example 84, 1-(2,2-Difluorobenzo[1,3]dioxol-4-yl)-3-(2,2,2-trifluoro-1-methyl-1-trifluoromethylethyl)-urea]: the pEC50 is 5.30 to 6.00.

In the case of `CC(NC(=O)Nc1ccccc1OC(F)(F)C(F)F)(C(F)(F)F)C(F)(F)F` [Example 78, 1-(2-(1,1,2,2-Tetrafluoroethoxy)phenyl)-3-(2,2,2-trifluoro-1-methyl-1-trifluoromethylethyl)-urea], the negative logarithm of the EC50 (pEC50) was 5.30 to 6.00.

As for `COc1cc(NC(=O)NC(C)(C(F)(F)F)C(F)(F)F)cc(OC)c1OC` [Example 55, 1-(2,2,2-trifluoro-1-methyl-1-trifluoromethylethyl)-3-(3,4,5-trimethoxyphenyl)-urea], the pEC50 was 6.00 to 6.30.

Regarding `CC(NC(=O)NNS(=O)(=O)c1ccccc1Cl)(C(F)(F)F)C(F)(F)F` [Example 26, N-2-(1,1,1,3,3,3-Hexafluoro-2-methylpropyl)-2-[(2-chlorophenyl)sulfonyl]hydrazine-1-carboxamide], the pEC50 was 5.30 to 6.00.

`CC1CCN(C(=O)NC(C)(C(F)(F)F)C(F)(F)F)CC1` [Example 70, 4-Methyl-1-piperidine-1-(2,2,2-trifluoro-1-methyl-1-trifluoromethylethyl)-carboxamide]: the pEC50 is 5.30 to 6.00.

For the molecule `CC(=O)c1ccccc1NC(=O)NC(C)(C(F)(F)F)C(F)(F)F` [Example 53, 1-(2-Acetylphenyl)-3-(2,2,2-trifluoro-1-methyl-1-trifluoromethylethyl)-urea], the pEC50 was 6.00 to 6.30.

On to `Cc1ccc(S(=O)(=O)NN(C)C(=O)NC(C)(C(F)(F)F)C(F)(F)F)cc1` [Example 35], for which the pEC50 is 5.30 to 6.00.

For `Cc1ccc(S(=O)(=O)NNC(=O)NC(C)(C(F)(F)F)C(F)(F)F)cc1` [Example 11, N-2-(1,1,1,3,3,3-Hexafluoro-2-methylpropyl)-2-[(4-methylphenyl)sulfonyl]hydrazine-1-carboxamide], the pEC50 was over 6.30.

Consider `CC(NC(=O)N1CCN(c2ccccc2)CC1)(C(F)(F)F)C(F)(F)F` [Example 51, 4-Phenylpiperazine-1-(2,2,2-trifluoro-1-methyl-1-trifluoromethylethyl)-carboxamide], for which the pEC50 was over 6.30.

Consider `CC(NC(=O)NNS(=O)(=O)c1cccc(C(F)(F)F)c1)(C(F)(F)F)C(F)(F)F` [Example 19], for which the pEC50 was 6.00 to 6.30.

Take `CC(NC(=O)NNS(=O)(=O)c1ccc(C#N)cc1)(C(F)(F)F)C(F)(F)F` [Example 33, N-2-(1,1,1,3,3,3-Hexafluoro-2-methylpropyl)-2-[(4-cyanophenyl)sulfonyl]hydrazine-1-carboxamide]: the pEC50 was 5.30 to 6.00.

On to `CC(NC(=O)Nc1ccccc1C(N)=O)(C(F)(F)F)C(F)(F)F` [Example 63, 2-[3-(1,1-Bis-trifluoromethylethyl)-ureido]benzamide], for which the negative-log EC50 (pEC50) was 5.30 to 6.00.

Take `COc1ccc(S(=O)(=O)NNC(=O)NC(C)(C(F)(F)F)C(F)(F)F)cc1` [Example 12, N-2-(1,1,1,3,3,3-Hexafluoro-2-methylpropyl)-2-[(4-methylphenyl)sulfonyl]hydrazine-1-carboxamide]: the pEC50 is over 6.30.

As to `CC(NC(=O)Nc1cccc(C#N)c1)(C(F)(F)F)C(F)(F)F` [Example 76, 1-(3-Cyanophenyl)-3-(2,2,2-trifluoro-1-methyl-1-trifluoromethylethyl)-urea], the pEC50 is 5.30 to 6.00.

As to `CC(NC(=O)NNS(=O)(=O)c1ccc(OC(F)F)cc1)(C(F)(F)F)C(F)(F)F` [Example 13, N-2-(1,1,1,3,3,3-Hexafluoro-2-methylpropyl)-2-[(4-difluoromethoxyphenyl)sulfonyl] hydrazine-1-carboxamide], the pEC50 is over 6.30.

As to `COc1ccccc1NC(=O)NC(C)(C(F)(F)F)C(F)(F)F` [Example 98, 1-(2-Methoxyphenyl)-3-(2,2,2-trifluoro-1-methyl-1-trifluoromethylethyl)-urea], the negative logarithm of the EC50 (pEC50) was under 5.30.

As to `CC(NC(=O)Nc1cccc2c1OC(F)(F)C(F)(F)O2)(C(F)(F)F)C(F)(F)F` [Example 67, 1-(2,2,3,3-Tetrafluoro-2,3-dihydrobenzo[1,4]dioxin-5-yl)-3-(2,2,2-trifluoro-1-methyl-1-trifluoromethylethyl)-urea], the negative-log EC50 (pEC50) was 5.30 to 6.00.

In the case of `Cc1cc(C)c(S(=O)(=O)NNC(=O)NC(C)(C(F)(F)F)C(F)(F)F)c(C)c1` [Example 5, N-2-(1,1,1,3,3,3-Hexafluoro-2-methylpropyl)-2-[(2,4,6-trimethylphenyl)sulfonyl)hydrazine-1-carboxamide], the pEC50 is over 6.30.

As for `CC(NC(=O)NNS(=O)(=O)c1ccc(-c2ccccc2)cc1)(C(F)(F)F)C(F)(F)F` [Example 1], the pEC50 was over 6.30.

For `CC(NC(=O)NNS(=O)(=O)c1ccc(-c2csnn2)cc1)(C(F)(F)F)C(F)(F)F` [Example 8, N-2-(1,1,1,3,3,3-Hexafluoro-2-methylpropyl)-2-[(4-(4-[1,2,3]thiadiazolyl)phenyl)sulfonyl] hydrazine-1-carboxamide], the pEC50 is over 6.30.

For `CC(NC(=O)Nc1c(F)cccc1F)(C(F)(F)F)C(F)(F)F` [Example 62, 1-(2,6-Difluorophenyl)-3-(2,2,2-trifluoro-1-methyl-1-trifluoromethylethyl)-urea], the pEC50 was 5.30 to 6.00.

For the molecule `CC(NC(=O)Nc1ccc(Br)cc1OC(F)(F)F)(C(F)(F)F)C(F)(F)F` [Example 95, 1-(4-Bromo-2-trifluoromethoxyphenyl)-3-(2,2,2-trifluoro-1-methyl-1-trifluoromethylethyl)-urea], the negative-log EC50 (pEC50) is under 5.30.

Take `CC(NC(=O)Nc1ccc(OC(F)(F)F)cc1)(C(F)(F)F)C(F)(F)F` [Example 69, 1-(4-Trifluoromethoxyphenyl)-3-(2,2,2-trifluoro-1-methyl-1-trifluoromethylethyl)-urea]: the negative-log EC50 (pEC50) is 5.30 to 6.00.

Regarding `CC(NC(=O)NNS(=O)(=O)c1ccccc1F)(C(F)(F)F)C(F)(F)F` [Example 41, N-2-(1,1,1,3,3,3-Hexafluoro-2-methylpropyl)-2-[(2-fluorophenyl)sulfonyl]hydrazine-1-carboxamide], the pEC50 was 5.30 to 6.00.

As to `CC(NC(=O)Nc1ccc(C(F)(F)F)cc1)(C(F)(F)F)C(F)(F)F` [Example 56, 1-(4-Trifluoromethylphenyl)-3-(2,2,2-trifluoro-1-methyl-1-trifluoromethylethyl)-urea], the pEC50 was 6.00 to 6.30.

With `CC(NC(=O)N1CCCC1)(C(F)(F)F)C(F)(F)F` [Example 91, 1-Pyrrolidinyl-1-(2,2,2-trifluoro-1-methyl-1-trifluoromethylethyl)-carboxamide], the pEC50 was under 5.30.

Regarding `CC(NC(=O)NNS(=O)(=O)c1ccc(S(=O)(=O)N2CCCC2)cc1)(C(F)(F)F)C(F)(F)F` [Example 25, N-2-(1,1,1,3,3,3-Hexafluoro-2-methylpropyl)-2-[4-(pyrrolidin-1-sulfonyl)phenylsulfonyl]hydrazine-1-carboxamide], the pEC50 is 5.30 to 6.00.
